Results on 18 compounds are retold here after patent US20230203041A1, “ANTAGONISTS OF THE ADENOSINE A2A RECEPTOR” (AdoRx Therapeutics Limited, priority 2020, published 2023).

Structures are written as SMILES. Counter-ions that a name gives are not always drawn.

The target of experiment [1] is T1, human Adenosine A2a receptor (Homo sapiens, UniProt P29274).
T1 construct: expressed in transfected cells; host or cells: CHO cell membranes
As to the kind of experiment: Adenosine receptor TR-FRET binding assay (CA200645 displacement), A2a. Conditions: 100 nM CA200645, CHO cell membranes, 2 hours at room temperature. (Time-resolved FRET reads energy transfer from a long-lived donor to a nearby acceptor.)

Experiment [2] has as its target T2, human Adenosine A3 receptor (Homo sapiens, UniProt P0DMS8).
T2 sequence (P0DMS8 1-318): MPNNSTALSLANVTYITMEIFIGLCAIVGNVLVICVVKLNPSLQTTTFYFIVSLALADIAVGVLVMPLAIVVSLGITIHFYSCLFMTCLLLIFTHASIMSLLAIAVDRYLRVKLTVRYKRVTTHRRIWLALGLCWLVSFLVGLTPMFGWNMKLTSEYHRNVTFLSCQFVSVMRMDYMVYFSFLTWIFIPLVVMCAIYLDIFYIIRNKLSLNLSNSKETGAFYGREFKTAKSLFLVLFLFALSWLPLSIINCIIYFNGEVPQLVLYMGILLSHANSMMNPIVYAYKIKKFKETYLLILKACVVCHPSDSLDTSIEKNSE
The experiment can be described thus: Adenosine receptor TR-FRET binding assay (CA200645 displacement), A3.

For experiment [3], the target named is T3, human Adenosine A2b receptor (Homo sapiens, UniProt P29275).
T3 construct: expressed in transfected cells; host or cells: CHO cell membranes
T3 sequence (P29275 1-332): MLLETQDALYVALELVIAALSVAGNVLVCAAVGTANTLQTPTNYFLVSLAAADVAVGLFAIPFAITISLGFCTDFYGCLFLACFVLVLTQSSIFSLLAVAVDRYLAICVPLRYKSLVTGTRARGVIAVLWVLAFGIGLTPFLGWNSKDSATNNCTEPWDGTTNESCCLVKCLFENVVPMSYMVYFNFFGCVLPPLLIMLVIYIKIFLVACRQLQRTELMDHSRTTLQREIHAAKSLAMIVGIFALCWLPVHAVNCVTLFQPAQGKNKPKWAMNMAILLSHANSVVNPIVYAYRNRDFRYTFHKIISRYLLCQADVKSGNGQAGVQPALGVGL
The experiment can be described thus: Adenosine receptor TR-FRET binding assay (CA200645 displacement), A2b. Conditions: 30 nM CA200645, CHO cell membranes, 2 hours at room temperature.

For experiment [4], the target named is T4, human Adenosine A1 receptor (Homo sapiens, UniProt P30542).
T4 sequence (P30542 1-326): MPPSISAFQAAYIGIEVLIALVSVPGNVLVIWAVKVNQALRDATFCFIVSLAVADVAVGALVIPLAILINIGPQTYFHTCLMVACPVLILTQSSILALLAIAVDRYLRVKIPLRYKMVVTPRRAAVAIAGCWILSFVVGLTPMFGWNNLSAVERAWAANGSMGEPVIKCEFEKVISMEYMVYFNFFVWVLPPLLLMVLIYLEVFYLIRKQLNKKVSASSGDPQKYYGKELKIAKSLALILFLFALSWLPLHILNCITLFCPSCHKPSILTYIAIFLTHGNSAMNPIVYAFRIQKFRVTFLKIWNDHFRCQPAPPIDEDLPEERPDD
As to the kind of experiment: Adenosine receptor TR-FRET binding assay (CA200645 displacement), A1.

T1 sequence (P29274 whole entry): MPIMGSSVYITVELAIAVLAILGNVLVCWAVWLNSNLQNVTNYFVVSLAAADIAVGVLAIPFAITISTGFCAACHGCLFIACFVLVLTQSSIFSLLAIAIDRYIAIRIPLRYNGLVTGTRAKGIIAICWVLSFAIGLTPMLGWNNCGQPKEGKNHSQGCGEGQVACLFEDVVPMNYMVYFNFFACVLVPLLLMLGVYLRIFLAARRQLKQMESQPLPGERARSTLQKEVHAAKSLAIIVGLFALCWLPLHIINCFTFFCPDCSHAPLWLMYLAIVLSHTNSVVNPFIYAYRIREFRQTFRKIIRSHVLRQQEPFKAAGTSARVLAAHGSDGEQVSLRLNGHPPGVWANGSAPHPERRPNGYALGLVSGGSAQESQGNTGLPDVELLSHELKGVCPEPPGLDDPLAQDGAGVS

Regarding `Cc1cc(-c2c(-c3cccc(C#N)c3)nn3ccc(C(=O)NCC4CC(O)C4)nc23)cc(Cl)n1` (stereo not drawn) [Example 6.10, 3-(2-Chloro-6-methyl-4-pyridyl)-2-(3-cyanophenyl)-N-[(3-hydroxycyclobutyl)methyl]pyrazolo[1,5-a]pyrimidine-5-carboxamide], the Ki (commonly a dissociation constant, usually derived from enzyme kinetics or from competition with a known ligand) was 2.5 nM in experiment [1], greater than 1000 nM in experiment [2], 24 nM in experiment [3] and 581 nM in experiment [4].

Turning to `Cc1cc(-c2c(-c3cccc(C#N)c3)nn3ccc(C(=O)NC45CCC(N)(CC4)C5)nc23)cc(Cl)n1` [Example 6.12, N-(4-Aminonorbornan-1-yl)-3-(2-chloro-6-methyl-4-pyridyl)-2-(3-cyanophenyl)pyrazolo[1,5-a]pyrimidine-5-carboxamide], the Ki in experiment [1] is 3.7 nM; in experiment [2], greater than 1000 nM; in experiment [3], 6 nM; in experiment [4] it was 105 nM.

`Cc1cc(-c2c(-c3cccc(C#N)c3)nn3ccc(C(=O)NC4CN(C)C4)nc23)cc(Cl)n1` [Example 6.16, 3-(2-Chloro-6-methyl-4-pyridyl)-2-(3-cyanophenyl)-N-(1-methylazetidin-3-yl)pyrazolo[1,5-a]pyrimidine-5-carboxamide]: the Ki was 5.9 nM in experiment [1], greater than 1000 nM in experiment [2], 54 nM in experiment [3] and 346 nM in experiment [4].

Consider `Cc1cc(-c2c(-c3cccc(C#N)c3)nn3ccc(C(=O)N[C@H]4COC[C@H]4O)nc23)cc(Cl)n1` [Example 6.17, 3-(2-Chloro-6-methyl-4-pyridyl)-2-(3-cyanophenyl)-N-[(3S,4S)-4-hydroxytetrahydrofuran-3-yl]pyrazolo[1,5-a]pyrimidine-5-carboxamide], for which the Ki in experiment [1] is 0.5 nM; in experiment [2], greater than 1000 nM; in experiment [3], 3 nM; in experiment [4], 110 nM.

As for `Cc1cc(-c2c(-c3cccc(C#N)c3)nn3ccc(C(=O)NC45CC(N)(C4)C5)nc23)cc(Cl)n1` [Example 7.1, N-(3-Amino-1-bicyclo[1.1.1]pentanyl)-3-(2-chloro-6-methyl-4-pyridyl)-2-(3-cyanophenyl)pyrazolo[1,5-a]pyrimidine-5-carboxamide], the Ki in experiment [1] was 2 nM; in experiment [2], greater than 1000 nM; in experiment [3], 17 nM; in experiment [4] it was 245 nM.

`Cc1cc(-c2c(-c3cccc(C#N)c3)nn3ccc(C(=O)N[C@H]4CNC[C@@H]4O)nc23)cc(Cl)n1` [Example 7.5, 3-(2-Chloro-6-methyl-4-pyridyl)-2-(3-cyanophenyl)-N-[trans-(3S,4S)-4-hydroxypyrrolidin-3-yl]pyrazolo[1,5-a]pyrimidine-5-carboxamide]: the Ki in experiment [1] is 5.5 nM; in experiment [2], greater than 1000 nM; in experiment [3], 5 nM; in experiment [4] it was 612 nM.

As for `Cc1cc(-c2c(-c3cccc(C#N)c3)nn3ccc(C(=O)NCC4(O)CCNC4)nc23)cc(Cl)n1` (stereo not drawn) [Example 7.6, 3-(2-Chloro-6-methyl-4-pyridyl)-2-(3-cyanophenyl)-N-[(3-hydroxypyrrolidin-3-yl)methyl]pyrazolo[1,5-a]pyrimidine-5-carboxamide], the Ki is 6.8 nM in experiment [1], greater than 1000 nM in experiment [2], 13 nM in experiment [3] and 672 nM in experiment [4].

For `Cc1cc(-c2c(-c3cccc(C#N)c3)nn3ccc(C(=O)NC4(C)CCNC4)nc23)cc(Cl)n1` (stereo not drawn) [Example 7.8, 3-(2-Chloro-6-methyl-4-pyridyl)-2-(3-cyanophenyl)-N-(3-methylpyrrolidin-3-yl)pyrazolo[1,5-a]pyrimidine-5-carboxamide], the Ki was 2.4 nM in experiment [1], greater than 1000 nM in experiment [2], 10 nM in experiment [3] and 160 nM in experiment [4].

For the compound `Cc1cc(-c2c(-c3cccc(C#N)c3)nn3ccc(C(=O)NCC4(N)CC(F)(F)C4)nc23)cc(Cl)n1` [Example 7.10, N-[(1-Amino-3,3-difluoro-cyclobutyl)methyl]-3-(2-chloro-6-methyl-4-pyridyl)-2-(3-cyanophenyl)pyrazolo[1,5-a]pyrimidine-5-carboxamide], the Ki was 4.3 nM in experiment [1], greater than 1000 nM in experiment [2], 19 nM in experiment [3] and 181 nM in experiment [4].

On to `Cc1cc(-c2c(-c3cccc(C#N)c3)nn3ccc(C(=O)NCC4CNCCO4)nc23)cc(Cl)n1` (stereo not drawn) [Example 7.11, 3-(2-Chloro-6-methyl-4-pyridyl)-2-(3-cyanophenyl)-N-(morpholin-2-ylmethyl)pyrazolo[1,5-a]pyrimidine-5-carboxamide], for which the Ki was 4.9 nM in experiment [1], greater than 1000 nM in experiment [2], 3 nM in experiment [3] and 137 nM in experiment [4].

Regarding `Cc1cc(-c2c(-c3cccc(C#N)c3)nn3ccc(C(=O)N4CCNCC4)nc23)cc(Cl)n1` [Example 7.12, 3-[3-(2-Chloro-6-methyl-4-pyridyl)-5-(piperazine-1-carbonyl)pyrazolo[1,5-a]pyrimidin-2-yl]benzonitrile hydrochloride], the Ki in experiment [1] is 44.3 nM; in experiment [2] it was greater than 1000 nM; in experiment [3], 20 nM; in experiment [4] it was 459 nM.

Take `Cc1cc(-c2c(-c3cccc(C#N)c3)nn3ccc(C(=O)N[C@@H]4CCNC4)nc23)cc(Cl)n1` [Example 7.13, 3-(2-Chloro-6-methyl-4-pyridyl)-2-(3-cyanophenyl)-N-[(3R)-pyrrolidin-3-yl]pyrazolo[1,5-a]pyrimidine-5-carboxamide hydrochloride]: the Ki in experiment [1] is 6.3 nM; in experiment [2], greater than 1000 nM; in experiment [3] it was 28 nM; in experiment [4], 160 nM.

Regarding `Cc1cc(-c2c(-c3cccc(C#N)c3)nn3ccc(C(=O)NC4CCNCC4)nc23)cc(Cl)n1` [Example 7.15, 3-(2-Chloro-6-methyl-4-pyridyl)-2-(3-cyanophenyl)-N-(4-piperidyl)pyrazolo[1,5-a]pyrimidine-5-carboxamide], the Ki in experiment [1] is 22.1 nM; in experiment [2], greater than 1000 nM; in experiment [3], 25 nM; in experiment [4], 703 nM.

Consider `Cc1cc(-c2c(-c3cccc(C#N)c3)nn3ccc(C(C)(C)O)nc23)cc(Cl)n1` [Example 8, 3-[3-(2-Chloro-6-methyl-4-pyridyl)-5-(1-hydroxy-1-methyl-ethyl)pyrazolo[1,5-a]pyrimidin-2-yl]benzonitrile], for which the Ki in experiment [1] was 9.9 nM; in experiment [2] it was greater than 1000 nM; in experiment [3], 41 nM; in experiment [4] it was 291 nM.

For `Cc1cc(-c2c(-c3cccc(C#N)c3)nn3ccc(NS(C)(=O)=O)nc23)cc(Cl)n1` [Example 16, N-[3-(2-Chloro-6-methyl-4-pyridyl)-2-(3-cyanophenyl)pyrazolo[1,5-a]pyrimidin-5-yl]methanesulfonamide], the Ki in experiment [1] was 13.7 nM; in experiment [2], 1180 nM; in experiment [3] it was 1 nM; in experiment [4], 303 nM.

Consider `Cc1cc(-c2c(-c3cccc(C#N)c3)nn3ccc(N[C@@H](C)C(=O)O)nc23)cc(Cl)n1` [Example 17, (2S)-2-[[3-(2-Chloro-6-methyl-4-pyridyl)-2-(3-cyanophenyl)pyrazolo[1,5-a]pyrimidin-5-yl]amino]propanoic acid], for which the Ki is 17.9 nM in experiment [1], greater than 1000 nM in experiment [2], 101 nM in experiment [3] and 136 nM in experiment [4].

In the case of `Cc1cc(-c2c(-c3cccc(C#N)c3)nn3ccc(O[C@@H]4CCNC4)nc23)cc(Cl)n1` [Example 18, 3-[3-(2-Chloro-6-methyl-4-pyridyl)-5-[(3R)-pyrrolidin-3-yl]oxy-pyrazolo[1,5-a]pyrimidin-2-yl]benzonitrile formate], the inhibitory constant (Ki) is 9.7 nM in experiment [1], greater than 1000 nM in experiment [2], 16 nM in experiment [3] and 54 nM in experiment [4].

On to `Cc1cc(-c2c(-c3cccc(C#N)c3)nn3ccc(CN4CCOCC4)nc23)cc(Cl)n1` [Example 20, 3-[3-(2-Chloro-6-methyl-4-pyridyl)-5-(morpholinomethyl)pyrazolo[1,5-a]pyrimidin-2-yl]benzonitrile], for which the Ki in experiment [1] is 11.6 nM; in experiment [2], greater than 1000 nM; in experiment [3], 22 nM; in experiment [4], 573 nM.
